Measurements taken from patent publication US20150238460A1, “Methods and Compositions For Treating Hepatocellular Carcinoma” (priority 2012, published 2015).
Read-outs that look alike come from different tables or passages of the source.

Key:
[1] = tested on: advanced hepatocellular carcinoma; conditions: Asian-Pacific trial, advanced HCC; cited from earlier work
[2] = tested on: advanced hepatocellular carcinoma; conditions: cited from earlier work
[3] = tested on: advanced, unresectable HCC (various cancers in whole group); experiment: Phase I trial G-202-001, expansion group with modified dosing regimen; format: in vivo, human; conditions: fifth HCC patient
Source text: Virtually all anti-cancer agents have the potential to cause infusion reactions, which are reactions that may be allergic or non-allergic in nature and not related to the known toxicity profile of the agent. Infusion reactions are usually thought of as hypersensitivity reactions, despite the absence of an allergic component in many cases.
Endpoints evaluated in the expansion group included safety, tumor response rate, progression-free survival, and overall survival. Additional secondary endpoints included exploration of pharmacodynamic markers associated with various cancers. Assessments were routinely performed during therapy and following therapy if toxicity was the reason therapy was discontinued.
The only FDA-approved therapy for patients with unresectable HCC is sorafenib tosylate, otherwise known as Nexavar® and/or by the chemical name: 4-(4-{3-[4-Chloro-3-(trifluoromethyl)phenyl]ureido}phenoxy)N2methylpyridine-2-carboxamide 4-methylbenzenesulfonate.

[4] = tested on: Sarcoplasmic/Endoplasmic Reticulum Calcium ATPase (SERCA) pump; conditions: cited from earlier work
[5] = tested on: progressive advanced hepatocellular carcinoma (HCC); conditions: two of four patients, no improvement on therapy

CNC(=O)c1cc(Oc2ccc(NC(=O)Nc3ccc(Cl)c(C(F)(F)F)c3)cc2)ccn1.Cc1ccc(S(=O)(=O)O)cc1 [sorafenib, 4-(4-{3-[4-Chloro-3-(trifluoromethyl)phenyl]ureido}phenoxy)N2methylpyridine-2-carboxamide 4-methylbenzenesulfonate]
median overall survival [1]: 6.5 months
time to radiologic progression [1]: 2.8 months
time to radiologic progression ([2]; SHARP Trial, patients with advanced HCC, no prior systemic treatment): 5.5 months
overall survival ([2]; SHARP Trial, patients with advanced HCC): 10.7 months
average time to disease progression after beginning sorafenib treatment ([2]; clinical trial of 602 patients with HCC (Llovet 2008)): approximately six
disease progression on prior sorafenib treatment after ([3]; before G-202): 3 months

C/C=C(/C)C(=O)O[C@H]1C(C)=C2[C@H]([C@@H]1OC(=O)CCCCCCC)[C@@](C)(OC(C)=O)C[C@H](OC(=O)CCC)[C@@]1(O)[C@H]2OC(=O)[C@@]1(C)O [Thapsigargin]
affinity of binding to SERCA pump [4]: high affinity

8-O-(12-aminododecanoyl)-debutanoyl-thapsigargin aspartate-glutamate-γ-glutamate-γ-glutamate-γ-glutamate OH [G-202]
disease progression reached after number of cycles [5]: no more than two
time without disease progression after ceasing treatment [3]: more than four
